Test results from patent US11464770B2, “Anticancer pharmaceutical composition” (NATIONAL CANCER CENTER, priority 2016, dated 2022).
Read-outs that look alike come from different tables or passages of the source.

Tests used:
[1] = tested on: melanoma cell lines; assay: Cell based assay, cell viability (CellTiter-Glo), melanoma cell lines; conditions: Homo sapiens; LOX-IMVI cell line
Description: (§1) Commercially available bladder cancer, prostate cancer, lung cancer, breast cancer, blood cancer, pancreatic cancer, colorectal cancer, brain cancer, neuroblastoma, melanoma, liver cancer, cervical carcinoma, ovarian cancer, renal cancer, and papilloma cell lines were each treated with trypsin-EDTA and cultured, followed by being seeded in each well of a 96 well plate. After 24 hours of treatment at constant temperature, the respective cells were treated with the candidate compound so that a final concentration became 0 to 2 μM. The treated cells were additionally cultured for 72 hours, and cell viability was measured by using an ATP detection method (CellTiter-Glo® Luminescent Cell Viability Assay, Promega).

[2] = tested on: colorectal cancer cell lines (e.g. DLD-1, HCT 116, SW620, HCT-15, HCT-8, RKO); assay: Cell based assay, cell viability (CellTiter-Glo), colorectal cancer cell lines
Description: as §1

[3] = tested on: ovarian cancer cell lines; assay: Cell based assay, cell viability (CellTiter-Glo), ovarian cancer cell lines; conditions: Homo sapiens; OVCAR-3 cells
Description: as §1

[4] = Homo sapiens, DLD-1, 72 hours treatment, read-out: IC50, colorectal cancer cell line DLD-1
[5] = Homo sapiens, HCT 116, 72 hours treatment, read-out: IC50, colorectal cancer cell line HCT 116
[6] = Homo sapiens, HCT-8, 72 hours treatment, read-out: IC50, colorectal cancer cell line HCT-8
[7] = Homo sapiens, HCT-15, 72 hours treatment, read-out: IC50, colorectal cancer cell line HCT-15
[8] = Homo sapiens, HT-29, 72 hours treatment, read-out: IC50, colorectal cancer cell line HT-29
[9] = Homo sapiens, LoVo, 72 hours treatment, read-out: IC50, colorectal cancer cell line LoVo
[10] = Homo sapiens, SW480, 72 hours treatment, read-out: IC50, colorectal cancer cell line SW480
[11] = Homo sapiens, SW-620, SW620, 72 hours treatment, read-out: IC50, colorectal cancer cell line SW620
[12] = RKO, 72 hours treatment, read-out: IC50, colorectal cancer cell line RKO

Compound `CSc1c(C(C)=O)c(=O)c2c(Cl)ccc(Br)c2n1S(=O)(=O)c1ccc(Cl)cc1` [Compound 37, 3-acetyl-8-bromo-5-chloro-1-((4-chlorophenyl)sulfonyl)-2-(methylthio)quinolin-4(1H)-one] has an IC50 [1] of over 2000 nM, an IC50 [2, 4] of over 2000 nM and an IC50 [2, 5] of over 2000 nM. The IC50 [2, 6] was over 2000 nM, the IC50 [2, 7] was over 2000 nM and the IC50 [2, 8] was over 10000 nM. The IC50 [2, 9] was over 2000 nM, the IC50 [2, 10] was over 2000 nM and the IC50 [2, 11] was over 2000 nM. The IC50 [2, 12] was over 2000 nM and the IC50 [3] was over 2000 nM.
Work on `CSc1c(C(C)=O)c(=O)c2c(Cl)ccc(Br)c2n1S(=O)(=O)c1ccc([N+](=O)[O-])cc1` [Compound 38, 3-acetyl-8-bromo-5-chloro-2-(methylthio)-1-((4-nitrophenyl)sulfonyl)quinolin-4(1H)-one] yielded an IC50 [1] of over 2000 nM, an IC50 [2, 4] of over 2000 nM and an IC50 [2, 5] of over 2000 nM. The IC50 [2, 6] was over 2000 nM, the IC50 [2, 7] was over 2000 nM and the IC50 [2, 8] was over 10000 nM. The IC50 [2, 9] was over 2000 nM, the IC50 [2, 10] was over 2000 nM and the IC50 [2, 11] was over 2000 nM. The IC50 [2, 12] was over 2000 nM and the IC50 [3] was over 2000 nM.
`CCS(=O)(=O)n1c([S+](C)[O-])c(C(C)=O)c(=O)c2c(Cl)ccc(Br)c21` (stereo not drawn) [Compound 39, 3-acetyl-8-bromo-5-chloro-1-(ethylsulfonyl)-2-(methylsulfinyl)quinolin-4(1H)-one] was tested, and the IC50 [1] was over 2000 nM, the IC50 [2, 4] was over 2000 nM and the IC50 [2, 5] was over 2000 nM. For the same compound, the IC50 [2, 6] was over 2000 nM, the IC50 [2, 7] was over 2000 nM and the IC50 [2, 8] was over 10000 nM. It also gave an IC50 [2, 9] of over 2000 nM, an IC50 [2, 10] of over 2000 nM and an IC50 [2, 11] of over 2000 nM. It also gave an IC50 [2, 12] of over 2000 nM and an IC50 [3] of over 2000 nM.
`CSc1c(C(C)=O)c(=O)c2c(Cl)ccc(Br)c2n1S(=O)(=O)c1ccc(C(C)(C)C)cc1` [Compound 40, 3-acetyl-8-bromo-1-((4-(tert-butyl)phenyl)sulfonyl)-5-chloro-2-(methylthio)quinolin-4(1H)-one] showed an IC50 [1] of over 2000 nM, an IC50 [2, 4] of over 2000 nM and an IC50 [2, 5] of over 2000 nM. It also gave an IC50 [2, 6] of over 2000 nM, an IC50 [2, 7] of over 2000 nM and an IC50 [2, 8] of over 10000 nM. For the same compound, the IC50 [2, 9] was over 2000 nM, the IC50 [2, 10] was over 2000 nM and the IC50 [2, 11] was over 2000 nM. The IC50 [2, 12] was over 2000 nM and the IC50 [3] was over 2000 nM.
With `CC(=O)c1c(S(C)(=O)=O)n(S(=O)(=O)c2ccc(C(C)(C)C)cc2)c2c(Br)ccc(Cl)c2c1=O` [Compound 41, 3-acetyl-8-bromo-1-((4-(tert-butyl)phenyl)sulfonyl)-5-chloro-2-(methylsulfonyl)quinolin-4(1H)-one] the IC50 [1] was over 2000 nM, the IC50 [2, 4] was over 2000 nM and the IC50 [2, 5] was over 2000 nM. For the same compound, the IC50 [2, 6] was over 2000 nM, the IC50 [2, 7] was over 2000 nM and the IC50 [2, 8] was over 10000 nM. It also gave an IC50 [2, 9] of over 2000 nM, an IC50 [2, 10] of over 2000 nM and an IC50 [2, 11] of over 2000 nM. It also gave an IC50 [2, 12] of over 2000 nM and an IC50 [3] of over 2000 nM.
In the case of `CC(=O)c1c([S+](C)[O-])n(S(=O)(=O)c2ccc(C(C)(C)C)cc2)c2c(Br)ccc(Cl)c2c1=O` (stereo not drawn) [Compound 42, 3-acetyl-8-bromo-1-((4-(tert-butyl)phenyl)sulfonyl)-5-chloro-2-(methylsulfinyl)quinolin-4(1H)-one], the IC50 [1] is reported as over 2000 nM, the IC50 [2, 4] is reported as 1960 nM and the IC50 [2, 5] is reported as over 2000 nM. For the same compound, the IC50 [2, 6] was over 2000 nM, the IC50 [2, 7] was over 2000 nM and the IC50 [2, 8] was over 10000 nM. It also gave an IC50 [2, 9] of over 2000 nM, an IC50 [2, 10] of over 2000 nM and an IC50 [2, 11] of over 2000 nM. For the same compound, the IC50 [2, 12] was over 2000 nM and the IC50 [3] was over 2000 nM.
With `CC(=O)c1c(SCc2cc(Cl)ccc2Cl)[nH]c2c(Br)ccc(Cl)c2c1=O` [Compound 43, 3-acetyl-8-bromo-5-chloro-2-((2,5-dichlorobenzyl)thio)quinolin-4(1H)-one] the IC50 [1] was over 2000 nM, the IC50 [2, 4] was over 2000 nM and the IC50 [2, 5] was over 2000 nM. It also gave an IC50 [2, 6] of over 2000 nM, an IC50 [2, 7] of over 2000 nM and an IC50 [2, 8] of over 10000 nM. For the same compound, the IC50 [2, 9] was over 2000 nM, the IC50 [2, 10] was over 2000 nM and the IC50 [2, 11] was over 2000 nM. The IC50 [2, 12] was over 2000 nM and the IC50 [3] was over 2000 nM.
Compound `CC(=O)c1c(SCc2cc(F)cc(F)c2)[nH]c2c(Br)ccc(Cl)c2c1=O` [Compound 45, 3-acetyl-8-bromo-5-chloro-2-((3,5-difluorobenzyl)thio)quinolin-4(1H)-one] has an IC50 [1] of over 2000 nM, an IC50 [2, 4] of over 2000 nM and an IC50 [2, 5] of over 2000 nM. The IC50 [2, 6] was over 2000 nM, the IC50 [2, 7] was over 2000 nM and the IC50 [2, 8] was over 10000 nM. The IC50 [2, 9] was over 2000 nM, the IC50 [2, 10] was over 2000 nM and the IC50 [2, 11] was over 2000 nM. The IC50 [2, 12] was over 2000 nM and the IC50 [3] was over 2000 nM.
For `CC(=O)c1c(SCc2cccc(I)c2)[nH]c2c(Br)ccc(Cl)c2c1=O` [Compound 47, 3-acetyl-8-bromo-5-chloro-2-((3-iodobenzyl)thio)quinolin-4(1H)-one], the IC50 [1] was over 2000 nM, the IC50 [2, 4] was over 2000 nM and the IC50 [2, 5] was over 2000 nM. The IC50 [2, 6] was over 2000 nM, the IC50 [2, 7] was over 2000 nM and the IC50 [2, 8] was over 10000 nM. It also gave an IC50 [2, 9] of over 2000 nM, an IC50 [2, 10] of over 2000 nM and an IC50 [2, 11] of over 2000 nM. It also gave an IC50 [2, 12] of over 2000 nM and an IC50 [3] of over 2000 nM.
